In patent US20230121313A1 (priority 2019, published 2023):

Test system: subjects with MDD at imminent risk for suicide
Conditions: 84 mg
[1] = human, in vivo, other: intranasal

Excerpt: Among 68 randomized subjects, 66 were included in the safety analysis set (defined as receiving at least one dose of study medication in the double-blind phase). […] All safety subjects (N=66) were included in the intent-to-treat (ITT) analysis set (defined as receiving at least one dose of study medication during the double-blind phase and having both the baseline and the Day 1, 4-hour postdose evaluation for the MADRS total score). Forty-nine subjects were included in the safety (FU) analysis set (defined as all subjects who have at least 1 visit during the follow up phase).

CN[C@]1(c2ccccc2Cl)CCCCC1=O [esketamine, (S)-2-(2-chlorophenyl)-2-(methylamino)cyclohexanone]
TEAE Vision blurred, subjects (%) (double-blind phase, N = 35): (8.6%)
TEAE Vomiting, subjects (%) (double-blind phase, N = 35): (20.0%)
TEAE Weight increased, subjects (%) (double-blind phase, N = 35): (5.7%)
TEAE leading to study discontinuation: Aggression, subjects (%) (double-blind phase, N = 35): 2.9%
TEAE leading to study discontinuation: Agitation, subjects (%) (double-blind phase, N = 35): 2.9%
TEAE leading to study discontinuation: Cardiac disorders, subjects (%) (double-blind phase, N = 35): 2.9%
TEAE leading to study discontinuation: Dizziness, subjects (%) (double-blind phase, N = 35): 2.9%
TEAE leading to study discontinuation: Dysgeusia, subjects (%) (double-blind phase, N = 35): 2.9%
TEAE leading to study discontinuation: Dyspnea, subjects (%) (double-blind phase, N = 35): 2.9%
TEAE leading to study discontinuation: Gastrointestinal disorders, subjects (%) (double-blind phase, N = 35): 2.9%
TEAE leading to study discontinuation: Nausea, subjects (%) (double-blind phase, N = 35): 2.9%
TEAE leading to study discontinuation: Nervous system disorders, subjects (%) (double-blind phase, N = 35): 5.7%
TEAE leading to study discontinuation: Psychiatric disorders, subjects (%) (double-blind phase, N = 35): 5.7%
TEAE leading to study discontinuation: Respiratory, thoracic and mediastinal disorders, subjects (%) (double-blind phase, N = 35): 2.9%
TEAE leading to study discontinuation: Ventricular extrasystoles, subjects (%) (double-blind phase, N = 35): 2.9%
Total no. subjects with TEAE leading to study discontinuation (%) (double-blind phase, N = 35): 14.3%
Subjects with possibly related TEAE (%) (double-blind phase, N = 35, possible, probable, very likely): 82.9%
AE Abdominal pain, subjects (%) (follow up phase, N = 27): (3.7%)
AE Abdominal tenderness, subjects (%) (follow up phase, N = 27): (3.7%)
AE Back pain, subjects (%) (follow up phase, N = 27): (3.7%)
AE Cogwheel rigidity, subjects (%) (follow up phase, N = 27): (3.7%)
AE Contusion, subjects (%) (follow up phase, N = 27): (3.7%)
AE Depression, subjects (%) (follow up phase, N = 27): (3.7%)
AE Diarrhea, subjects (%) (follow up phase, N = 27): (3.7%)
AE Dizziness, subjects (%) (follow up phase, N = 27): (3.7%)
AE Dry mouth, subjects (%) (follow up phase, N = 27): (7.4%)
AE Dysgeusia, subjects (%) (follow up phase, N = 27): (3.7%)
AE Ear infection, subjects (%) (follow up phase, N = 27): (3.7%)
AE Epistaxis, subjects (%) (follow up phase, N = 27): (3.7%)
AE Flank pain, subjects (%) (follow up phase, N = 27): (3.7%)
AE Gastrointestinal disorders, subjects (%) (follow up phase, N = 27): (22.2%)
AE Headache, subjects (%) (follow up phase, N = 27): (7.4%)
AE Infections and infestations, subjects (%) (follow up phase, N = 27): (11.1%)
AE Injury, poisoning and procedural complications, subjects (%) (follow up phase, N = 27): (7.4%)
AE Insomnia, subjects (%) (follow up phase, N = 27): (11.1%)
AE Intentional self-injury, subjects (%) (follow up phase, N = 27): (3.7%)
AE Loss of consciousness, subjects (%) (follow up phase, N = 27): (3.7%)
AE Migraine, subjects (%) (follow up phase, N = 27): (3.7%)
AE Musculoskeletal and connective tissue disorders, subjects (%) (follow up phase, N = 27): (7.4%)
AE Musculoskeletal chest pain, subjects (%) (follow up phase, N = 27): (3.7%)
AE Musculoskeletal pain, subjects (%) (follow up phase, N = 27): (3.7%)
AE Nasal congestion, subjects (%) (follow up phase, N = 27): (3.7%)
AE Nasopharyngitis, subjects (%) (follow up phase, N = 27): (3.7%)
AE Neck pain, subjects (%) (follow up phase, N = 27): (3.7%)
AE Nervous system disorders, subjects (%) (follow up phase, N = 27): (22.2%)
AE Night sweats, subjects (%) (follow up phase, N = 27): (3.7%)
AE Pelvic pain, subjects (%) (follow up phase, N = 27): (3.7%)
AE Pharyngitis, subjects (%) (follow up phase, N = 27): (7.4%)
AE Psychiatric disorders, subjects (%) (follow up phase, N = 27): (18.5%)
AE Reproductive system and breast disorders, subjects (%) (follow up phase, N = 27): (3.7%)
AE Respiratory, thoracic and mediastinal disorders, subjects (%) (follow up phase, N = 27): (7.4%)
AE Restlessness, subjects (%) (follow up phase, N = 27): (3.7%)
AE Road traffic accident, subjects (%) (follow up phase, N = 27): (3.7%)
AE Sedation, subjects (%) (follow up phase, N = 27): (3.7%)
AE Skin and subcutaneous tissue disorders, subjects (%) (follow up phase, N = 27): (3.7%)
AE Suicidal ideation, subjects (%) (follow up phase, N = 27): (3.7%)
AE Tremor, subjects (%) (follow up phase, N = 27): (7.4%)
AE Upper respiratory tract infection, subjects (%) (follow up phase, N = 27): (3.7%)
AE Vomiting, subjects (%) (follow up phase, N = 27): (3.7%)
AE Vulvovaginal mycotic infection, subjects (%) (follow up phase, N = 27): (3.7%)
Serious AE: Psychiatric disorders, subjects (%) (follow up phase, N = 27): 3.7%
Serious AE: Suicidal ideation, subjects (%) (follow up phase, N = 27): 3.7%
Total no. subjects with a serious adverse event (%) (follow up phase, N = 27): 3.7%
Total no. subjects with adverse events (%) (follow up phase, N = 27): (48.1%)
Subjects who discontinued from the double-blind phase due to adverse events [1]: 5 subjects
Subjects with at least one TEAE [1]: 94.3%
Subjects with at least one adverse event [1]: 48.1%
TEAE dissociation, % of subjects [1]: 31.4%
TEAE dizziness, % of subjects [1]: 34.3%
TEAE dysgeusia, % of subjects [1]: 31.4%
TEAE headache, % of subjects [1]: 31.4%
TEAE nausea, % of subjects [1]: 37.1%
TEAE vomiting, % of subjects [1]: 20.0%
Subjects with a serious adverse event (human, in vivo, other: intranasal, 56 day): 1
